Reference: US20240067632A1, “WEE1 Degrading Compounds and Uses Thereof” (Bristol-Myers Squibb Company, priority 2022, published 2024)

Tests used:
MKN45 cells = experiment: MKN45 cell proliferation assay (Cell-Titer-Glo, 120 h); type: cell-based; conditions: for EC50: Homo sapiens, MKN-45, 120 h, Cell-Titer-Glo, growth inhibition, read-out: MKN45 Cell Prolif. 120 hr (EC50); for MKN45 Cell Prolif. 120 hr (Ymin-Obs): minimal percent of DMSO control observed in the concentrations tested
Experimental: MKN45 cells were obtained from Celgene internal cell banks and cultured in RPMI complete media (RPMI-1640, 1× Penicillin/Streptomycin, 1× glutamine, 1× Sodium Pyruvate, Non-essential Amino Acids, 10% Fetal Bovine serum, all component from Thermo-Fisher). Compounds were dispensed into 384-well plates using an HP DE300 compound printer in triplicate with 8 compounds on each plate. For each compound, a 10-point dose response was printed at half-log dilutions starting at either 1 uM or 10 uM. The DMSO concentration was kept constant for a final assay concentration of 0.1% per well assuming 50 ul final media volume. Compound plates were sealed and frozen at −20 C until use.
For each assay batch, compound plates were thawed and allowed to reach room temperature, and cells were seeded at 400 cells per well in 50 ul complete RPMI media. After 120 hours of incubation at 37 C and 5% CO2, cells were lysed by addition of 25 μL of Cell-Titer-Glo Reagent (Promega Corporation, Madison, WI), as per manufacturer's instructions, protected from light, shaken for 45 minutes, and total luminescence read by a Perkin Elmer Envision plate reader. Total luminescence signal is linearly correlated with cell number remaining in the well.
Luminescence data was processed per plate by subtracting reagent-only “blank” well luminescence from all measured values and calculating a percent of DMSO control value for each treatment well. Then, to determine the half-maximal effective concentration (EC50) values for cell growth inhibition, a four parameter logistic model was fit to the data for each DMSO-normalized compound: Sigmoidal Dose-Response Model: (FIT=(A+((B−A)/1+((C/x)^D)))) where C is the inflection point (EC50), D is the Hill slope, and A and B are the low and high limits of the fit respectively. The lower limit of the fit (value A) is referred to as Ymin-calculated. The minimal percent of DMSO control that is observed in the concentrations tested for each compound is labeled as “Ymin-obs”, and was recorded and reported in the tables. Sigmoidal fit curves were processed and evaluated using Activity Base (IDBS, Alameda, CA).

WEE1 = molecular target: T1, WEE1 (Homo sapiens, UniProt P30291+Q96SW2); experiment: WEE1-ePL degradation assay (LentiX-WEE1-ePL-GSPT1-ND cells, InCELL Hunter luminescence, 4 h); type: cell-based; conditions: 293T-LentiX WEE1-ePL cells; for 293T-LentiX WEE1-ePL Degradation 4 hr (Ymin): lower limit of the fit (0 = luciferase inhibitor, Ymax = DMSO control); for DC50: read-out: 293T-LentiX WEE1-ePL Degradation 4 hr (EC50)
T1 construct: C-terminal ePL-tagged (DiscoverX, Fremont, CA) full-length WEE1 expression construct; expressed in transfected cells; host or cells: LentiX-HEK293T (Invitrogen), lentiviral transduction; co-expressing GSPT1-GN (G576N, lacking the first 158 amino acids)
How it was run: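 First, compounds were pre-plated as 10-point, 3-fold dilutions (top 1 uM or 10 uM) with DMSO control; next, WEE1-ePL-expressing HEK293T cells were added and held 4 h at 37 °C; finally, InCELL Hunter reagent was applied for 30 min before luminescence reading. A 4PL fit gave EC50 and Ymin.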

| SMILES | EC50 (MKN45 cells) | 293T-LentiX WEE1-ePL Degradation 4 hr (Ymin) (WEE1) | DC50 (WEE1) | MKN45 Cell Prolif. 120 hr (Ymin-Obs) (MKN45 cells) |
| --- | --- | --- | --- | --- |
| O=C1CCC(N2C(=O)c3ccc(O[C@H]4CCN(Cc5ccc6ncccc6c5)C4)cc3C2=O)C(=O)N1 (stereo partly drawn) [2-(2,6-dioxopiperidin-3-yl)-5-{[(3S)-1-[(quinolin-6-yl)methyl]pyrrolidin-3-yl]oxy}-2,3-dihydro-1H-isoindole-1,3-dione] | 1030 nM | 29.65 | 43.4 nM | 21.24 |
| O=C1CCC(N2Cc3cc(O[C@H]4CCN(Cc5ccc6nc([C@H]7C[C@H](O)C7)ccc6c5)C4)ccc3C2=O)C(=O)N1 (stereo partly drawn) [3-(1-oxo-5-{[(3S)-1-({2-[(1r,3r)-3-hydroxycyclobutyl]quinolin-6-yl}methyl)pyrrolidin-3-yl]oxy}-2,3-dihydro-1H-isoindol-2-yl)piperidine-2,6-dione] | 5.02 nM | 32 | 3.8 nM | 7.85 |
| O=C1CCC(N2Cc3cc(O[C@H]4CCN(Cc5ccc6nc([C@H]7C[C@@H](O)C7)ccc6c5)C4)ccc3C2=O)C(=O)N1 (stereo partly drawn) [3-(1-oxo-5-{[(3S)-1-({2-[(1s,3s)-3-hydroxycyclobutyl]quinolin-6-yl}methyl)pyrrolidin-3-yl]oxy}-2,3-dihydro-1H-isoindol-2-yl)piperidine-2,6-dione] | 5.21 nM | 31 | 2.09 nM | 6.89 |
| O=C1CCC(N2Cc3cc(O[C@H]4CCN(Cc5ccc6nc([C@H]7CCOC7)ccc6c5)C4)ccc3C2=O)C(=O)N1 (stereo partly drawn) [3-(1-oxo-5-{[(3S)-1-({2-[(3R)-oxolan-3-yl]quinolin-6-yl}methyl)pyrrolidin-3-yl]oxy}-2,3-dihydro-1H-isoindol-2-yl)piperidine-2,6-dione] | 6.07 nM | 29 | 2.71 nM | 8.454 |
| O=C1CCC(N2Cc3cc(O[C@H]4CCN(Cc5ccnc6c5CCCO6)C4)ccc3C2=O)C(=O)N1 (stereo partly drawn) [3-(1-oxo-5-{[(3S)-1-({2H,3H,4H-pyrano[2,3-b]pyridin-5-yl}methyl)pyrrolidin-3-yl]oxy}-2,3-dihydro-1H-isoindol-2-yl)piperidine-2,6-dione] | 489 nM | 44 | 38.9 nM | 27.04 |
| O=C1CCC(N2Cc3cc(O[C@H]4CCN(Cc5cnc6c(c5)CCCO6)C4)ccc3C2=O)C(=O)N1 (stereo partly drawn) [3-(1-oxo-5-{[(3S)-1-({2H,3H,4H-pyrano[2,3-b]pyridin-6-yl}methyl)pyrrolidin-3-yl]oxy}-2,3-dihydro-1H-isoindol-2-yl)piperidine-2,6-dione] | 1120 nM | 33.245 | 35.4 nM | 23.52 |
| O=C1CCC(N2Cc3cc(O[C@H]4CCN(Cc5cncc6c5CCCO6)C4)ccc3C2=O)C(=O)N1 (stereo partly drawn) [3-(1-oxo-5-{[(3S)-1-({2H,3H,4H-pyrano[2,3-c]pyridin-5-yl}methyl)pyrrolidin-3-yl]oxy}-2,3-dihydro-1H-isoindol-2-yl)piperidine-2,6-dione] | 69.9 nM | 29.38 | 24.6 nM | 11.03 |
| O=C1CCC(N2Cc3cc(O[C@H]4CCN(Cc5cc6c(cn5)OCCC6)C4)ccc3C2=O)C(=O)N1 (stereo partly drawn) [3-(1-oxo-5-{[(3S)-1-({2H,3H,4H-pyrano[2,3-c]pyridin-6-yl}methyl)pyrrolidin-3-yl]oxy}-2,3-dihydro-1H-isoindol-2-yl)piperidine-2,6-dione] | 153 nM | 33 | 12.3 nM | 12.988 |
| O=C1CCC(N2Cc3cc(O[C@H]4CCN(Cc5nccc6c5CCCO6)C4)ccc3C2=O)C(=O)N1 (stereo partly drawn) [3-(1-oxo-5-{[(3S)-1-({2H,3H,4H-pyrano[3,2-c]pyridin-5-yl}methyl)pyrrolidin-3-yl]oxy}-2,3-dihydro-1H-isoindol-2-yl)piperidine-2,6-dione] | 122 nM | 36 | 16.1 nM | 16.99 |

Stronger by EC50 (MKN45 cells), values ahead:

| EC50 (MKN45 cells) | 293T-LentiX WEE1-ePL Degradation 4 hr (Ymin) (WEE1) | DC50 (WEE1) | SMILES | MKN45 Cell Prolif. 120 hr (Ymin-Obs) (MKN45 cells) |
| --- | --- | --- | --- | --- |
| 2.56 nM | 33.24 | 1.57 nM | COC[C@H]1CC[C@H](c2ccc3cc(CN4CC[C@H](Oc5ccc6c(c5)CN(C5CCC(=O)NC5=O)C6=O)C4)ccc3n2)CC1 (stereo partly drawn) [3-(1-oxo-5-{[(3S)-1-({2-[(1r,4r)-4-(methoxymethyl)cyclohexyl]quinolin-6-yl}methyl)pyrrolidin-3-yl]oxy}-2,3-dihydro-1H-isoindol-2-yl)piperidine-2,6-dione] | 14.13 |
| 2.79 nM | 30 | 4.67 nM | O=C1CCC(N2Cc3cc(O[C@H]4CCN(Cc5ccc6nc([C@H]7CC[C@H](O)CC7)ccc6c5)C4)ccc3C2=O)C(=O)N1 (stereo partly drawn) [3-(1-oxo-5-{[(3S)-1-({2-[(1r,4r)-4-hydroxycyclohexyl]quinolin-6-yl}methyl)pyrrolidin-3-yl]oxy}-2,3-dihydro-1H-isoindol-2-yl)piperidine-2,6-dione] | 7.3325 |
| 1.29 nM | 26 | 1.88 nM | CO[C@H]1CC[C@H](c2ccc3cc(CN4CC[C@H](Oc5ccc6c(c5)CN(C5CCC(=O)NC5=O)C6=O)C4)ccc3n2)CC1 (stereo partly drawn) [3-(1-oxo-5-{[(3S)-1-({2-[(1r,4r)-4-methoxycyclohexyl]quinolin-6-yl}methyl)pyrrolidin-3-yl]oxy}-2,3-dihydro-1H-isoindol-2-yl)piperidine-2,6-dione] | 11.035 |
| 2.66 nM | 28.9 | 1.22 nM | COC[C@H]1CC[C@@H](c2ccc3cc(CN4CC[C@H](Oc5ccc6c(c5)CN(C5CCC(=O)NC5=O)C6=O)C4)ccc3n2)CC1 (stereo partly drawn) [3-(1-oxo-5-{[(3S)-1-({2-[(1s,4s)-4-(methoxymethyl)cyclohexyl]quinolin-6-yl}methyl)pyrrolidin-3-yl]oxy}-2,3-dihydro-1H-isoindol-2-yl)piperidine-2,6-dione] | 12.53 |
| 0.329 nM | 33 | 1.03 nM | O=C1CCC(N2Cc3cc(O[C@H]4CCN(Cc5ccc6nc([C@H]7CC[C@@H](O)CC7)ccc6c5)C4)ccc3C2=O)C(=O)N1 (stereo partly drawn) [3-(1-oxo-5-{[(3S)-1-({2-[(1s,4s)-4-hydroxycyclohexyl]quinolin-6-yl}methyl)pyrrolidin-3-yl]oxy}-2,3-dihydro-1H-isoindol-2-yl)piperidine-2,6-dione] | 7.956 |
| 1.14 nM | 30 | 1.12 nM | CO[C@H]1CC[C@@H](c2ccc3cc(CN4CC[C@H](Oc5ccc6c(c5)CN(C5CCC(=O)NC5=O)C6=O)C4)ccc3n2)CC1 (stereo partly drawn) [3-(1-oxo-5-{[(3S)-1-({2-[(1s,4s)-4-methoxycyclohexyl]quinolin-6-yl}methyl)pyrrolidin-3-yl]oxy}-2,3-dihydro-1H-isoindol-2-yl)piperidine-2,6-dione] | 9.583 |
| 2.45 nM | 30 | 2.41 nM | O=C1CCC(N2Cc3cc(O[C@H]4CCN(Cc5ccc6nc([C@@H]7CCOC7)ccc6c5)C4)ccc3C2=O)C(=O)N1 (stereo partly drawn) [3-(1-oxo-5-{[(3S)-1-({2-[(3S)-oxolan-3-yl]quinolin-6-yl}methyl)pyrrolidin-3-yl]oxy}-2,3-dihydro-1H-isoindol-2-yl)piperidine-2,6-dione] | 8.77 |
| 3.4 nM | 36 | 6.51 nM | CC(C)OCc1ccc2cc(CN3CC[C@H](Oc4ccc5c(c4)CN(C4CCC(=O)NC4=O)C5=O)C3)ccc2n1 (stereo partly drawn) [3-(1-oxo-5-{[(3S)-1-({2-[(propan-2-yloxy)methyl]quinolin-6-yl}methyl)pyrrolidin-3-yl]oxy}-2,3-dihydro-1H-isoindol-2-yl)piperidine-2,6-dione] | 8.147 |
